Test system: ATDC5 cells
Test: Chondrogenesis activity assay in ATDC5 cells (collagen type II induction, immunofluorescence)
Type: cell-based, mouse
Details: for EC50: collagen type II induction in ATDC5 cells, concentration reaching 50% of maximum induction; for Emax: maximum percent induction of collagen type II relative to internal reference compound at 10 μM, ATDC5 cells
Description: A) Chondrogenesis Activity Assay in ATDC5 Cells
The chondrogenic potential of the compounds of the invention was determined using clonal mouse chondrogenic ATDC5 cells (T. Atsumi et al., Cell Differ. Dev. 1990, 30, 109-116). ATDC5 cells are derived from mouse embryonic AT805 teratocarcinoma cells and are used frequently to study the multistep chondrogenic differentiation process from precursor cells into chondrocytes (C. Shukunami et al., Exp. Cell Res. 1998, 241, 1-11; H. Aklyami et al., J. Bone Miner. Res. 1996, 11, 22-28; H. Akiyami et al., Biochem. Biophys. Res. Commun. 1997, 235, 142-147; C. Shukunami et al., J. Cell Biol. 1996, 133, 457-468; C. Shukunami et al., J. Bone Miner. Res. 1997, 12, 1174-1188). Undifferentiated ATDC5 cells grow in vitro until confluence, showing a fibroblast-like morphology. In the presence of insulin, cells undergo transient condensation and form numerous nodular structures (cartilage nodules). The cartilagenous nature of these nodules was shown by Alcian Blue staining as evidence of the production of proteoglycan (aggrecan) and collagen type II expression (by expression analysis), both molecular markers of chondrocytes (C. Shukunami et al., J. Cell Biol. 1996, 133, 457-468).
Chondrogenic differentiation of ATDC5 cells into chondrocytes by the compounds of the invention was determined by measuring the induction of type II collagen protein as a marker of chondrocytes, a structural component of the extracellular matrix which constitutes more than 80% of cartilage mass (D. R. Eyre, Clin. Orthop. Relat. Res. 2004, 427 Suppl, S118-S122). ATDC5 cells were obtained from RIKEN and cultured as monolayer in basal culture medium (Dulbecco's Modified Eagle Medium/Nutrient Mixture F-12 (DMEM/F12, Invitrogen, #31331-093) supplemented with 10 μg/ml Transferrin (Roche, #10652 202001), 3×10E−8 M sodium seienite (Sigma, #S-5261) and 5% Fetal Calf Serum (FCS Gold, PAA, #A15-251)), at 37° C., and 5% CO2 in plastic flasks of 75 cm^2 or 300 cm^2 subconfluently for propagation. ATDC5 cells were harvested and resuspended in differentiation culture medium that consisted of basal culture medium complemented with 10 μg/ml insulin (Sigma, #19278), to initiate chondrogenic differentiation. For studying the effect of test compounds, the ATDC5 cells were plated in 96-well plates (3.0×10E4 cells per well in 200 μl of differentiation culture medium). Test compounds dissolved in DMSO were added to yield increasing compound concentrations, typically from 40 nM to 10 μM, and a final DMSO concentration of 0.1%. On each 96-well plate, control wells containing no test compound but the same concentration of DMSO, i.e. untreated cells, were included and used as reference for the determination of the effect of the test compounds on the cells, and wells containing an internal reference compound at a concentration of 10 μM were included and used as positive control and for standardizing the results. Cells in the wells were incubated for 4 days at 37° C., and 5% CO2, followed by quantification of intracellular collagen type II.
Quantification of collagen type II in the ATDC5-cells was done by immunofluorescence staining of collagen type II, and fluorescence intensity was measured using a cellular high content imaging system (ImageXpress, Molecular Device). For immunofluorescence staining of intracellular collagen, medium was removed after compound incubation and cells were fixed with 200 μl/well methanol/water (95%/5%). Cells were permeabilized in 200 μl/well phosphate-buffered saline (PBS) containing 0.2% Triton X100 for 15 min and, after removal of the solution, blocked for 30 min with 200 μl/well PBS/0.2% Triton X100 containing 1% bovine serum albumin (BSA) to avoid unspecific binding. After the blocking step, the solution was removed and collagen type II staining solution was added. […]

SMILES | EC50 (Mus musculus) [nM] | EC50 [nM] | Emax (Mus musculus) [%]
CCn1c2c(-c3cc[nH]n3)cc(Cl)cc2c2ccnc(C)c21 [Example 234, 6-Chloro-9-ethyl-1-methyl-8-(1H-pyrazol-3-yl)-9H-pyrido[3,4-b]indole] | 5800 |  | 50 to 80
Cc1nccc2c1[nH]c1c(-c3cccc(CN4CCOCC4)c3)cc(Cl)cc12 [Example 255, 6-Chloro-1-methyl-8-(3-morpholin-4-ylmethyl-phenyl)-9H-pyrido[3,4-b]indole] | > 3300 |  | < 20
Cc1nccc2c1[nH]c1c(-c3ccc(CC(=O)N4CCC(N5CCCC5)CC4)cc3)cc(Cl)cc12 [Example 204, 2-[4-(6-Chloro-1-methyl-9H-pyrido[3,4-b]indol-8-yl)-phenyl]-1-(4-pyrrolidin-1-yl-piperidin-1-yl)-ethanone] | 190 |  | 50 to 80
CC#CCn1c2cnccc2c2cc(Cl)cc(-c3ccc(Cl)nc3)c21 [Example 90, 9-But-2-ynyl-6-chloro-8-(6-chloro-pyridin-3-yl)-9H-pyrido[3,4-b]indole] | > 10000 |  | < 20
COc1cc(OC)nc(COc2cccc(-c3cc(Cl)cc4c3[nH]c3c(C)nccc34)c2)n1 [Example 272, 6-Chloro-8-[3-(4,6-dimethoxy-pyrimidin-2-ylmethoxy)-phenyl]-1-methyl-9H-pyrido[3,4-b]indole] | 1900 |  | > 80
FC(F)(F)Cn1c2cnccc2c2cc(Cl)cc(-c3ccc(C(F)(F)F)nc3)c21 [Example 88, 6-Chloro-9-(2,2,2-trifluoro-ethyl)-8-(6-trifluoromethyl-pyridin-3-yl)-9H-pyrido[3,4-b]indole] | 1700 |  | < 20
Cc1nccc2c1[nH]c1c(-c3ccnn3C)cc(Cl)cc12 [Example 227, 6-Chloro-1-methyl-8-(2-methyl-2H-pyrazol-3-yl)-9H-pyrido[3,4-b]indole] | 330 |  | > 80
CC(C)(C)OC(=O)n1cc(-c2cc(Cl)cc3c4ccncc4n(CC(F)(F)F)c23)cn1 [Example 12, tert-Butyl 4-(6-chloro-9-(2,2,2-trifluoroethyl)-9H-pyrido[3,4-b]indol-8-yl)-1H-pyrazole-1-carboxylate] | > 10000 |  | 20 to 50
CCn1c2c(-c3ccc(CN4CCOCC4)cc3)cc(Cl)cc2c2ccnc(C)c21 [Example 30, 6-Chloro-9-ethyl-1-methyl-8-(4-morpholin-4-ylmethyl-phenyl)-9H-pyrido[3,4-b]indole] | 270 |  | > 80
FC(F)(F)Cn1c2cnccc2c2cc(Cl)cc(-c3cnc4[nH]ccc4c3)c21 [Example 71, 6-Chloro-8-(1H-pyrrolo[2,3-b]pyridin-5-yl)-9-(2,2,2-trifluoro-ethyl)-9H-pyrido[3,4-b]indole] | 1500 |  | < 20
COc1ccc(-c2cc(Cl)cc3c4ccncc4n(CC(F)(F)F)c23)cn1 [Example 62, 6-Chloro-8-(6-methoxy-pyridin-3-yl)-9-(2,2,2-trifluoro-ethyl)-9H-pyrido[3,4-b]indole] | 1200 |  | > 80
CNc1ncc(-c2cc(Cl)cc3c2[nH]c2c(C)nccc23)cn1 [Example 157, [5-(6-Chloro-1-methyl-9H-pyrido[3,4-b]indol-8-yl)-pyrimidin-2-yl]-methyl-amine] | > 10000 |  | 20 to 50
CC#CCn1c2cnccc2c2cc(Cl)cc(-c3ccc(Cl)nc3Cl)c21 [Example 3, 9-(But-2-ynyl)-6-chloro-8-(2,6-dichloropyridin-3-yl)-9H-pyrido[3,4-b]indole] | > 10000 |  | 20 to 50
COc1ccc(-c2cc(Cl)cc3c4ccnc(C)c4n(CC4CC4)c23)cc1 [Example 293, 6-Chloro-9-cyclopropylmethyl-8-(4-methoxy-phenyl)-1-methyl-9H-pyrido[3,4-b]indole] | 4500 |  | 50 to 80
CCn1c2c(-c3cc(C)nn3C)cc(Cl)cc2c2ccnc(C)c21 [Example 9, 6-Chloro-8-(2,5-dimethyl-2H-pyrazol-3-yl)-9-ethyl-1-methyl-9H-pyrido[3,4-b]indole] | 1400 |  | > 80
COCCn1cc(-c2cc(Cl)cc3c4ccncc4n(CC(F)(F)F)c23)cn1 [Example 169, 6-Chloro-8-[1-(2-methoxy-ethyl)-1H-pyrazol-4-yl]-9-(2,2,2-trifluoro-ethyl)-9H-pyrido[3,4-b]indole] | 1300 | 1100 | 
Cc1nccc2c1[nH]c1c(-c3ccc(N4CCNC(=O)C4)nc3)cc(Cl)cc12 [Example 109, 4-[5-(6-Chloro-1-methyl-9H-pyrido[3,4-b]indol-8-yl)-pyridin-2-yl]-piperazin-2-one] | 720 |  | 50 to 80
CCn1c2c(-c3cc(-c4ccccc4)no3)cc(Cl)cc2c2ccnc(C)c21 [Example 18, 6-Chloro-9-ethyl-1-methyl-8-[3-phenyl-isoxazol-5-yl)-9H-pyrido[3,4-b]indole] | 1000 |  | > 80

Continued, in another order:

EC50 (Mus musculus) [nM] | EC50 [nM] | SMILES | Emax (Mus musculus) [%]
3300 |  | Cc1nccc2c1[nH]c1c(-c3ccc(Oc4ccccc4)cc3)cc(Cl)cc12 [Example 205, 6-Chloro-1-methyl-8-(4-phenoxy-phenyl)-9H-pyrido[3,4-b]indole] | > 80
640 |  | CCOc1ccc(-c2cc(Cl)cc3c2[nH]c2c(C)nccc23)cc1 [Example 192, 6-Chloro-8-(4-ethoxy-phenyl)-1-methyl-9H-pyrido[3,4-b]indole] | > 80
> 3300 |  | Cc1nccc2c1[nH]c1c(-c3cccc(OCc4nccc5ccccc45)c3)cc(Cl)cc12 [Example 269, 6-Chloro-8-[3-(isoquinolin-1-ylmethoxy)-phenyl]-1-methyl-9H-pyrido[3,4-b]indole] | 20 to 50
800 |  | Cc1nccc2c1[nH]c1c(-c3ccc4c(c3)OC(C)C4)cc(Cl)cc12 (centres unmarked) [Example 196, 6-Chloro-1-methyl-8-(2-methyl-2,3-dihydro-benzofuran-6-yl)-9H-pyrido[3,4-b]indole] | 50 to 80
> 10000 |  | Cc1cc(OC(C)C)ccc1-c1cc(Cl)cc2c1[nH]c1c(C)nccc12 [Example 176, 6-Chloro-8-(4-isopropoxy-2-methyl-phenyl)-1-methyl-9H-pyrido[3,4-b]indole] | 20 to 50
540 |  | Cc1nccc2c1[nH]c1c(-c3cnn(C)c3)cc(Cl)cc12 [Example 151, 6-Chloro-1-methyl-8-(1-methyl-1H-pyrazol-4-yl)-9H-pyrido[3,4-b]indole] | 50 to 80
240 |  | Cc1nccc2c1[nH]c1c(-c3ccc(OCc4ncc5ccccc5n4)cc3)cc(Cl)cc12 [Example 41, 6-Chloro-1-methyl-8-[4-(quinazolin-2-ylmethoxy)-phenyl]-9H-pyrido[3,4-b]indole] | 50 to 80
640 |  | Cc1nccc2c1[nH]c1c(-c3ccc(OCc4ccccn4)cc3)cc(Cl)cc12 [Example 202, 6-Chloro-1-methyl-8-[4-(pyridin-2-ylmethoxy)-phenyl]-9H-pyrido[3,4-b]indole] | > 80
1500 |  | Cc1nccc2c1[nH]c1c(-c3cnc(-n4cccc4)nc3)cc(Cl)cc12 [Example 156, 6-Chloro-1-methyl-8-(2-pyrrol-1-yl-pyrimidin-5-yl)-9H-pyrido[3,4-b]indole] | < 20
> 3300 |  | Cc1nccc2c1[nH]c1c(-c3cccc(OCc4ncc5ccccc5n4)c3)cc(Cl)cc12 [Example 274, 6-Chloro-1-methyl-8-[3-(quinazolin-2-ylmethoxy)-phenyl]-9H-pyrido[3,4-b]indole] | < 20

— patent US12275733B2, “Substituted pyrido[3,4-b]indoles for the treatment of cartilage disorders” (Sanofi, priority 2016, dated 2025)
